The record followed here is US20250195500A1, “INJECTABLE PREPARATION COMPRISING ISOXAZOLINE DERIVATIVE, AND PREPARATION METHOD THEREFOR” (LG CHEM, LTD., priority 2022, published 2025).

One data set concerns caspase. Nature of the data set: Caspase inhibitory activity. In kind it is biochemical. To be noted: form present in aqueous solution.
The nature of data set [1]: Solubility in solvents of various compositions. Format: physicochemical. The text has this: Further, it was confirmed that the compound of Formula 1 has the property of reducing the pH of a solution while being dissolved in a solvent.
A short description of data set [2]: Conversion from compound of Formula 2 to compound of Formula 3 according to pH of solvent. Format: physicochemical.

The structures appear in SMILES notation. Entries after “also recorded” stand apart in the source; their conditions may differ.

As for `CC(C)[C@@]1(C(=O)N[C@@H](CC(=O)O)C(=O)CF)CC(c2nccc3ccccc23)=NO1` [compound of Formula 2], in the data set on caspase, the caspase inhibitory activity result is “active form”.
Take `CC(C)[C@@]1(C(=O)NC2CC(=O)OC2(O)CF)CC(c2nccc3ccccc23)=NO1` (stereo in doubt) [compound of Formula 1, (R)—N-((2S,3S)-2-(fluoromethyl)-2-hydroxy-5-oxotetrahydrofuran-3-yl)-5-isopropyl-3-(isoquinolin-1-yl)-4,5-dihydroisoxazol-5-carboxamide]: in data set [1] (basic solvent pH 9.0 or higher, strong acidic solvent pH 1 or lower or specific solvent that can be freeze-dried), the solubility in solvent result was “dissolves well”. In data set [1] (water), the solubility in water result is reported as “poorly soluble in water; also recorded: hardly soluble in water”.
For `CC(C)[C@@]1(C(=O)N[C@H](CC(=O)O)C(=O)CF)CC(c2nccc3ccccc23)=NO1` [compound of Formula 3], the results for the “production of compound of Formula 3 from compound of Formula 2” value in data set [2] (acidic solvent) and in data set [2] (neutral or more basic solvent) were “hardly produced” and “rapidly produced”, respectively. Also, the caspase inhibitory activity entry in the data set with caspase is given as “does not show the caspase inhibitory activity”.
